Test results from the CheMixHub viscosity set.

Experiment: xn = mol fraction of the nth substance listed

CCCCCCCCn1cc[n+](C)c1.O=[N+]([O-])[O-] + CCCO
101 kPa
Details	viscosity [mPa·s]
293.15 K, x2 = 0.107	510.9
298.15 K, x2 = 0.258	191.5

CCOC(=O)C(C)O (stereo not given) + COCCOCCOCCOCCOC
101 kPa
Details	viscosity [mPa·s]
303.15 K, x1 = 0.3998	2.815
308.15 K, x1 = 0.6001	2.385
323.15 K, x1 = 0.8001	1.605

CCN(CC)S(C)(=O)=O + CCCCO
303.15 K, 101.33 kPa
Details	viscosity [mPa·s]
x1 = 0.0631	20450
x1 = 0.1404	19420
x1 = 0.2197	19180
x1 = 0.2937	19420
x1 = 0.3626	19850
x1 = 0.4515	20780
x1 = 0.5227	21750
x1 = 0.6053	23400
x1 = 0.6908	25500
x1 = 0.7579	27420
x1 = 0.8437	30890
x1 = 0.9281	35520

CCCCC + CC(C)(C)O
viscosity [mPa·s], 101 kPa
Details	x1 = 0.1023	x1 = 0.2048	x1 = 0.3056	x1 = 0.407	x1 = 0.5068	x1 = 0.606	x1 = 0.7043	x1 = 0.8042	x1 = 0.902
293.15 K	1.891	1.128	0.88	0.771	0.657	0.485	0.373	0.32	0.281
303.15 K	1.992	1.162	1.011	1.064	0.954	0.769	0.616	0.49	0.36
313.15 K	1.996	1.211	1.298	1.282	1.182	1.012	0.832	0.625	0.455

CCC[NH2+]CCO.O=C([O-])c1ccccc1O + O
100 kPa, x2 = 0.14
Details	viscosity [mPa·s]
298 K	376.1
303 K	261.8
313 K	136.8
323 K	78.08

CC(=O)O.NCCO + CCCCO
298.15 K, 101.3 kPa
Details	viscosity [mPa·s]
x2 = 0.088	1548
x2 = 0.179	734.1
x2 = 0.272	460.3
x2 = 0.369	325.3
x2 = 0.476	190.3
x2 = 0.574	74.63
x2 = 0.666	30.51
x2 = 0.776	19.04
x2 = 0.881	14.02

CCCCC + CCO
298.15 K, 101.33 kPa
Details	viscosity [mPa·s]
x2 = 0.0673	0.245
x2 = 0.1351	0.255
x2 = 0.2366	0.288
x2 = 0.3031	0.302
x2 = 0.4034	0.347
x2 = 0.5262	0.425
x2 = 0.6339	0.521
x2 = 0.7315	0.634
x2 = 0.8097	0.742
x2 = 0.9174	0.927

CCCCCCCO + O
Details	viscosity [mPa·s]
298.15 K, 101 kPa, x2 = 0.28	5.5

CCC(N)=O + O
298.15 K, 101 kPa
Details	viscosity [mPa·s]
x1 = 0.003097	0.919
x1 = 0.0145	1.025
x1 = 0.03165	1.188
x1 = 0.06563	1.536
x1 = 0.1487	3.03
x1 = 0.3724	5.98

C1CCCCCCC1 + C1CCCC1
101 kPa
Details	viscosity [mPa·s]
298.15 K, x1 = 0.0472	0.4501
298.15 K, x1 = 0.06	0.4609
298.15 K, x1 = 0.1203	0.5119
298.15 K, x1 = 0.1974	0.5838
298.15 K, x1 = 0.1982	0.5837
298.15 K, x1 = 0.2776	0.6681
298.15 K, x1 = 0.4053	0.824
298.15 K, x1 = 0.4083	0.827
298.15 K, x1 = 0.5052	0.968
298.15 K, x1 = 0.5909	1.116
298.15 K, x1 = 0.6747	1.276
298.15 K, x1 = 0.7902	1.55
298.15 K, x1 = 0.9049	1.895
303.15 K, x2 = 0.1036	1.684
303.15 K, x2 = 0.2009	1.421
303.15 K, x2 = 0.3014	1.205
303.15 K, x2 = 0.3972	1.031
303.15 K, x2 = 0.5003	0.8744
303.15 K, x2 = 0.5992	0.7468
303.15 K, x2 = 0.7036	0.6288
303.15 K, x2 = 0.8996	0.4555

CC[C@@H](CO)NCCN[C@@H](CC)CO.Cl.Cl + O
298.15 K, 100 kPa
Details	viscosity [mPa·s]
x1 = 9.47e-06	0.8977
x1 = 1.925e-05	0.8983
x1 = 3.721e-05	0.8987
x1 = 9.087e-05	0.9011
x1 = 0.0001804	0.9029
x1 = 0.000898	0.9213
x1 = 0.001796	0.9443

O=C(O)C=Cc1ccccc1 + CO
viscosity [mPa·s]
Details	308.15 K	313.15 K	318.15 K	323.15 K
101 kPa, x1 = 0.075	0.8921	–	–	0.7246
101 kPa, x1 = 0.084	0.9758	–	–	0.7679
101 kPa, x1 = 0.0887	1.014	–	–	0.797
101 kPa, x1 = 0.0981	1.092	–	–	0.846
101.33 kPa, x1 = 0.075	0.891	0.8453	0.7855	0.7246
101.33 kPa, x1 = 0.0981	1.092	1.003	0.9163	0.846

CS(C)=O + CCCCCCCO
101 kPa
Details	viscosity [mPa·s]
303.15 K, x1 = 0.1547	4.098
303.15 K, x1 = 0.3356	3.3
303.15 K, x1 = 0.4628	2.842
303.15 K, x1 = 0.5727	2.55
303.15 K, x1 = 0.6715	2.336
303.15 K, x1 = 0.7519	2.179
303.15 K, x1 = 0.8247	2.052
303.15 K, x1 = 0.8847	1.987
303.15 K, x1 = 0.9327	1.891
313 K, x1 = 0.1239	3.068
313 K, x1 = 0.2133	2.75
313 K, x1 = 0.2979	2.528
313 K, x1 = 0.4847	2.188
313 K, x1 = 0.5993	1.998
313 K, x1 = 0.7039	1.839
313 K, x1 = 0.8016	1.743
313 K, x1 = 0.9028	1.621
